Test results from the supplement of paper PMC10307832.

Key:
Selisistat + Foretinib = compound: C1CC(C2=C(C1)C3=C(N2)C=CC(=C3)Cl)C(=O)N [Selisistat] + COc1cc2c(Oc3ccc(NC(=O)C4(C(=O)Nc5ccc(F)cc5)CC4)cc3F)ccnc2cc1OCCCN1CCOCC1 [Foretinib] (partner 0.25 µM); assay: relative viability (nuclei count vs DMSO), 5 days (fraction); higher = more cells survive
Procedure, shortened: (§1)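 Medians of duplicate plates are given as relative viability. That measure is the nuclei count in treated wells divided by the count in vehicle wells. Counts were taken on 4× images of lung cancer cell lines in 1536-well plates, 5 days after pin-tool dosing the day after seeding with one drug alone or a fixed anchor-drug dose plus five library-drug doses (not always all listed) in √10 steps.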

Serdemetan + Tozasertib = compound: c1ccc2c(CCNc3ccc(Nc4ccncc4)cc3)c[nH]c2c1 [Serdemetan] + Cc1cc(Nc2cc(N3CCN(C)CC3)nc(Sc3ccc(NC(=O)C4CC4)cc3)n2)n[nH]1 [Tozasertib] (partner 0.1 µM); assay: as above
Procedure, shortened: as §1

Cell Line	relative viability (Selisistat + Foretinib; first compound 0.4 µM)	relative viability (Selisistat + Foretinib; first compound 1.265 µM)	relative viability (Selisistat + Foretinib; first compound 4 µM)	relative viability (Selisistat + Foretinib; first compound 12.65 µM)	relative viability (Selisistat + Foretinib; first compound 40 µM)	relative viability (Serdemetan + Tozasertib; first compound 0.04 µM)	relative viability (Serdemetan + Tozasertib; first compound 0.1265 µM)	relative viability (Serdemetan + Tozasertib; first compound 0.4 µM)	relative viability (Serdemetan + Tozasertib; first compound 4 µM)	relative viability (Serdemetan + Tozasertib; first compound 1.265 µM)
NCI-H1975	0.983	0.84	0.896	0.815	0.706	0.825	0.701	0.722	0.771	–
CAL-12T	1.12	1	1	1.03	1.03	0.272	0.318	0.246	0.327	0.309
NCI-H1623	0.963	0.782	0.614	0.918	0.846	0.421	0.517	0.349	0.399	0.385
HCC-44	–	–	–	–	–	1	1.04	0.765	0.869	0.915
EKVX	0.808	0.83	0.595	0.866	0.867	0.424	0.426	0.327	0.29	–
NCI-H1651	0.785	0.693	0.864	0.897	0.739	0.696	0.613	0.338	0.292	0.343
NCI-H1944	0.948	0.854	–	0.857	0.808	0.249	0.278	0.234	0.165	0.158
NCI-H1703	0.338	0.336	0.365	0.356	0.313	–	–	–	–	–
Calu-6	0.932	0.812	0.814	0.853	0.84	–	–	–	–	–
EBC-1	0.111	0.0934	0.0874	0.0996	0.104	–	–	–	–	–
SW 1573	0.954	0.806	0.821	0.931	0.929	0.168	0.15	0.218	0.18	0.248
A-427	1.02	0.976	1.02	1.12	0.984	0.2	0.198	0.192	0.16	0.165
NCI-H2347	0.918	1.04	–	1.06	0.989	0.623	0.602	0.572	0.399	0.588
NCI-H1355	0.933	0.991	0.955	0.99	0.993	0.489	0.508	0.443	0.385	0.381
NCI-H358	0.808	0.763	0.553	0.727	0.833	0.0807	0.105	0.111	0.0954	0.102
PC-3 [JPC-3]	1.07	1.04	1.01	1.07	1.06	0.841	0.795	0.784	0.87	0.929
NCI-H2228	0.979	0.931	0.685	0.843	0.916	0.267	0.246	0.371	0.162	0.128
HOP-62	1.09	1.19	1.17	0.97	1.12	0.421	0.323	0.322	0.245	0.328

Cell Line	relative viability (Selisistat + Foretinib; first compound 0.4 µM)	relative viability (Selisistat + Foretinib; first compound 1.265 µM)	relative viability (Selisistat + Foretinib; first compound 4 µM)	relative viability (Selisistat + Foretinib; first compound 12.65 µM)	relative viability (Selisistat + Foretinib; first compound 40 µM)	relative viability (Serdemetan + Tozasertib; first compound 0.04 µM)	relative viability (Serdemetan + Tozasertib; first compound 0.1265 µM)	relative viability (Serdemetan + Tozasertib; first compound 0.4 µM)	relative viability (Serdemetan + Tozasertib; first compound 4 µM)	relative viability (Serdemetan + Tozasertib; first compound 1.265 µM)
HARA	0.865	0.905	0.773	0.839	0.512	0.0876	0.0858	0.0868	0.0776	0.0805
NCI-H838	1.03	1.03	0.957	1.07	0.962	0.282	0.246	0.234	0.232	0.231
NCI-H1755	0.985	1.04	0.948	0.923	0.977	0.568	0.625	0.55	0.354	0.435
HCC-78	0.497	0.567	0.414	0.562	0.592	0.414	0.354	0.363	0.303	0.329
IA-LM	1.21	1.07	1.19	0.902	1.19	–	–	–	–	–
NCI-H322M	0.953	1.01	0.884	1.13	1.11	0.447	0.457	0.484	0.437	0.35
NCI-H3122	0.996	0.942	0.881	0.97	1.03	0.369	0.431	0.382	0.337	0.406
COR-L23	1.08	0.981	1.04	1.03	0.996	0.236	0.201	0.224	0.165	0.174
NCI-H2087	1.09	1.12	–	1.01	1.05	0.282	0.237	0.308	0.2	0.202
LC-2-ad	1.14	–	0.706	0.918	0.889	0.397	0.487	0.459	0.385	0.461
NCI-H1915	1.11	1.05	1.14	1.06	1.18	0.406	0.416	0.38	0.396	0.317
NCI-H1793	0.386	0.681	–	0.724	0.528	0.332	0.298	0.268	0.186	0.255
NCI-H2023	0.879	0.81	0.966	0.873	0.904	0.377	0.359	0.309	0.153	0.298
COR-L 105	0.984	1.15	–	1.1	1.14	0.313	0.336	0.357	0.366	0.405
RERF-LC-KJ	0.902	0.783	0.84	0.829	0.803	0.49	0.441	0.479	0.469	0.455
LXF-289	1.03	1.02	0.868	0.947	0.997	0.213	0.21	0.171	0.118	0.164
PC-14	0.946	0.982	0.826	0.908	0.946	0.522	0.595	–	0.428	0.548
NCI-H650	1.02	1.03	1.24	0.98	0.992	0.661	0.679	0.803	0.581	0.642
